Some test systems named below: A498; A549; ACHN; COLO 205; Hs-578T; LOX IMVI; MCF7; MDA-MB-231; Malme-3M; NCI/ADR-RES; PC-3; RPMI-8226; SN12C; SW-620; T47D; U-251; UACC-257; MDA-MB-435; NCI-H522.
What all share (test): NCI tumour cell line growth inhibition, 48 h

The structures appear in SMILES notation.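 1) Cells in 96-well plates. 2) Compound, 48 h, 5 concentrations. 3) Linear interpolation between surrounding doses. 4) Unreached endpoint = highest concentration. GI50 is the concentration that inhibits growth by half.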 Calls of active or inactive are those of the source. Cut-off read from the data, not from the text of the source: active = GI50 up to about 1.1 µM and inactive = higher.

In the case of `CC(=O)OC12c3ccccc3C(c3ccccc31)C1C(=O)N(Nc3ccccc3)C(=O)C12` (configuration not stated), the GI50 in the experiment on A498 is > 100 µM (inactive); in the experiment with A549 it was > 100 µM (inactive); in the experiment on ACHN, > 100 µM (inactive); in the experiment with COLO 205 it was > 100 µM (inactive); with Hs-578T, 23.1 µM (inactive); in the experiment with LOX IMVI, > 100 µM (inactive). The GI50 with MCF7, in the experiment with MDA-MB-231, with Malme-3M, with NCI/ADR-RES, in the experiment with PC-3 and with RPMI-8226 was > 100 µM (inactive) throughout. Further, the GI50 in the experiment with SN12C, in the experiment with SW-620, with T47D, with U-251 and in the experiment with UACC-257 was > 100 µM (inactive) in each case.

Consider `CCc1c2c(nc3ccc(O)cc13)-c1cc3c(c(=O)n1C2)COC(=O)[C@]3(O)CC` [7-ETHYL-10-HYDROXYCAMPTOTHECIN], for which the GI50 was 0.0525 µM (active) with A549; < 0.001 µM (active) in the experiment with ACHN; 0.0556 µM (active) with COLO 205; 0.0791 µM (active) in the experiment on Hs-578T; < 0.001 µM (active) in the experiment with LOX IMVI; 0.01 µM (active) with MCF7. Also, the GI50 was 0.00344 µM (active) in the experiment with MDA-MB-231; 0.00746 µM (active) in the experiment with PC-3; 0.236 µM (active) with RPMI-8226; < 0.001 µM (active) with SN12C; < 0.001 µM (active) in the experiment on T47D; < 0.001 µM (active) in the experiment with U-251. In the experiment with UACC-257, the GI50 is 0.013 µM (active).

Consider `CC(C)(C)OC(=O)C1C(=O)NC(=O)CC1C(COCc1ccccc1)OCc1ccccc1` (configuration not stated), for which the GI50 was 30.4 µM (inactive) in the experiment on A549; 23 µM (inactive) in the experiment with ACHN; 23.1 µM (inactive) in the experiment with Hs-578T; 19.2 µM (inactive) with LOX IMVI; 19.9 µM (inactive) in the experiment on MCF7; 17.2 µM (inactive) in the experiment with MDA-MB-231. The GI50 in the experiment with MDA-MB-435 is 19.1 µM (inactive); in the experiment with Malme-3M it was 19.8 µM (inactive); in the experiment on NCI-H522, 15.8 µM (inactive); in the experiment with PC-3, 12.4 µM (inactive); in the experiment on RPMI-8226, 20 µM (inactive); in the experiment with SN12C, > 10 µM (inactive). Also, the GI50 is 25.4 µM (inactive) in the experiment with SW-620, 14.3 µM (inactive) in the experiment on T47D, 20.5 µM (inactive) with U-251 and 20.7 µM (inactive) in the experiment with UACC-257.

Regarding `CCCNC(=S)N/C=C1/C(=O)C=C(C)OC1=O`, the GI50 in the experiment on A549, in the experiment with ACHN, in the experiment on COLO 205, in the experiment with LOX IMVI, with MCF7 and in the experiment on MDA-MB-231 was > 100 µM (inactive) in each case. The GI50 with MDA-MB-435, in the experiment on NCI/ADR-RES, with PC-3, in the experiment with SN12C, in the experiment on SW-620 and in the experiment with T47D was > 100 µM (inactive) in each case. Moreover, the GI50 with U-251 and in the experiment with UACC-257 was > 100 µM (inactive) each time.

`c1c[nH]c(-c2ccc(-c3ccc[nH]3)c3nsnc23)c1`: the GI50 in the experiment with A498 is > 76.6 µM (inactive); with A549, > 47.5 µM (inactive); with ACHN it was > 52.6 µM (inactive); in the experiment with COLO 205, 1.53 µM (inactive); with Hs-578T, 35.9 µM (inactive); with LOX IMVI, > 100 µM (inactive). Moreover, the GI50 with MCF7 is 0.0877 µM (active); in the experiment with MDA-MB-435, > 48.1 µM (inactive); in the experiment with NCI-H522 it was 53.6 µM (inactive); in the experiment on NCI/ADR-RES it was > 51.6 µM (inactive); in the experiment with PC-3, > 41.1 µM (inactive); in the experiment on RPMI-8226, > 27.4 µM (inactive). The GI50 in the experiment with SN12C was > 54.5 µM (inactive); in the experiment with SW-620 it was > 52.4 µM (inactive); with T47D it was 0.0336 µM (active); with U-251, 42.1 µM (inactive); in the experiment on UACC-257, > 61 µM (inactive).

In the case of `CCCCCCCCC#CCCCCCCC(F)C(=O)O` (configuration not stated), the GI50 with A498, in the experiment with A549, in the experiment with ACHN, with COLO 205, in the experiment with Hs-578T and in the experiment on LOX IMVI was > 100 µM (inactive) each time. In addition, the GI50 was > 100 µM (inactive) with MDA-MB-435; > 100 µM (inactive) with Malme-3M; > 100 µM (inactive) in the experiment with NCI-H522; > 100 µM (inactive) in the experiment on NCI/ADR-RES; > 100 µM (inactive) in the experiment on PC-3; 29.8 µM (inactive) in the experiment on RPMI-8226. Besides, the GI50 in the experiment with SW-620, with T47D, in the experiment with U-251 and with UACC-257 was > 100 µM (inactive) in each case.

`Cc1ccsc1/C=N/Nc1cc(C)c2cccc(C)c2n1`: the GI50 in the experiment with A498 is > 100 µM (inactive); in the experiment on A549, > 100 µM (inactive); in the experiment with ACHN it was > 100 µM (inactive); with COLO 205 it was > 100 µM (inactive); in the experiment with Hs-578T, > 100 µM (inactive); in the experiment on MCF7, 2.75 µM (inactive). Further, the GI50 in the experiment with MDA-MB-435 was > 100 µM (inactive); in the experiment with NCI/ADR-RES, > 100 µM (inactive); in the experiment with PC-3 it was 4.89 µM (inactive); in the experiment with SN12C, > 100 µM (inactive); in the experiment with SW-620, > 100 µM (inactive); in the experiment on T47D, > 100 µM (inactive). Moreover, the GI50 in the experiment on U-251 and in the experiment on UACC-257 was > 100 µM (inactive) in each case.

Regarding `CC(C)(C)NC1=NC(C(F)(F)F)(C(F)(F)F)NC(=O)N1`, the GI50 in the experiment on A549 is 35.1 µM (inactive); with ACHN, 39.7 µM (inactive); with COLO 205, > 10 µM (inactive); in the experiment on Hs-578T, 58.2 µM (inactive); with LOX IMVI, 53 µM (inactive); in the experiment on MCF7 it was 37.8 µM (inactive). In addition, the GI50 was 77.1 µM (inactive) in the experiment on MDA-MB-231; 37.1 µM (inactive) with MDA-MB-435; 34.4 µM (inactive) in the experiment on Malme-3M; 61 µM (inactive) with NCI/ADR-RES; 34.8 µM (inactive) with PC-3; 36.9 µM (inactive) with RPMI-8226. In addition, the GI50 in the experiment on SN12C is 54.7 µM (inactive); in the experiment with SW-620, > 100 µM (inactive); in the experiment on T47D, 28.3 µM (inactive); with U-251 it was 70.3 µM (inactive); with UACC-257, 54.2 µM (inactive).

Regarding `COC(=O)/C=C/C1(O)C=CC(=O)C=C1`, the GI50 in the experiment on A498 is 26.9 µM (inactive); with A549 it was 8.3 µM (inactive); in the experiment on ACHN it was 2.1 µM (inactive); in the experiment with COLO 205 it was 3.4 µM (inactive); in the experiment with LOX IMVI it was 2.07 µM (inactive); with MCF7 it was 2.87 µM (inactive). The GI50 was 2.95 µM (inactive) in the experiment on MDA-MB-231; 5.13 µM (inactive) in the experiment on MDA-MB-435; 2.62 µM (inactive) with Malme-3M; 0.338 µM (active) in the experiment on NCI-H522; 3.5 µM (inactive) with NCI/ADR-RES; 2.34 µM (inactive) in the experiment with PC-3. For the same molecule, the GI50 is 2.45 µM (inactive) in the experiment with RPMI-8226; 1.77 µM (inactive) in the experiment on SN12C; 5.7 µM (inactive) in the experiment on SW-620; 2.67 µM (inactive) in the experiment on T47D; 3.67 µM (inactive) in the experiment on U-251; 3.3 µM (inactive) in the experiment on UACC-257.

Regarding `C=C(CCC=C(C)C)C1CC=C(C)CC1` (configuration not stated), the GI50 in the experiment on A498 is > 100 µM (inactive); in the experiment with A549, 19.5 µM (inactive); in the experiment on ACHN it was 17.8 µM (inactive); with COLO 205, 26.4 µM (inactive); in the experiment with Hs-578T, 20.9 µM (inactive); in the experiment with LOX IMVI it was 5.48 µM (inactive). The GI50 with MCF7 was 19.8 µM (inactive); in the experiment with MDA-MB-231 it was 30.6 µM (inactive); in the experiment with MDA-MB-435, 18.2 µM (inactive); with Malme-3M, > 100 µM (inactive); in the experiment on NCI-H522 it was 16.4 µM (inactive); in the experiment on NCI/ADR-RES, 35.6 µM (inactive). For the same molecule, the GI50 was 19.7 µM (inactive) in the experiment with SN12C; 22.9 µM (inactive) in the experiment on SW-620; 28.1 µM (inactive) in the experiment with T47D; 18 µM (inactive) with U-251; > 100 µM (inactive) in the experiment on UACC-257.

Consider `CC(C)OC(=O)Nc1cccc(Cl)c1` [CHLORPROPHAM], for which the GI50 with A549, in the experiment with ACHN, in the experiment with COLO 205, in the experiment on Hs-578T, in the experiment on LOX IMVI and in the experiment on MCF7 was > 100 µM (inactive) each time. Besides, the GI50 was > 100 µM (inactive) with MDA-MB-231; > 100 µM (inactive) in the experiment with MDA-MB-435; 91.4 µM (inactive) in the experiment with NCI/ADR-RES; 94.4 µM (inactive) with PC-3; > 100 µM (inactive) in the experiment on RPMI-8226; > 100 µM (inactive) in the experiment on SN12C. Also, the GI50 with SW-620 was > 100 µM (inactive); in the experiment on T47D it was 50.4 µM (inactive); in the experiment with U-251 it was 87.1 µM (inactive); in the experiment on UACC-257 it was > 100 µM (inactive).

As for `COCC1OC(OC2OCC3OC4(OCC(O)(C(C)OC)C5OCOC54)OC3C2OC)C(OC)C(O)C1OC1OC(C)C(OC)C(OC2OC(C)C3OC4(CC(O)C(OC5CC(OC6CC(C)([N+](=O)[O-])C(OC)C(C)O6)C(OC(=O)c6c(C)c(Cl)c(O)c(Cl)c6OC)C(C)O5)C(C)O4)OC3(C)C2O)C1O` (configuration not stated), the GI50 with A498, with A549, in the experiment on ACHN, in the experiment with COLO 205, in the experiment on Hs-578T and with LOX IMVI was > 100 µM (inactive) each time. Further, the GI50 in the experiment on MDA-MB-231, in the experiment on MDA-MB-435, in the experiment with NCI-H522, in the experiment on NCI/ADR-RES, in the experiment on PC-3 and with RPMI-8226 was > 100 µM (inactive) in each case. The GI50 with SN12C, with SW-620, in the experiment with T47D, in the experiment with U-251 and with UACC-257 was > 100 µM (inactive) throughout.

Values taken from ChEMBL document CHEMBL1201862, “PubChem BioAssay data set” (2004).
